Assay results taken from patent US20260014204A1, “STEM CELL-DRUG CARRIER COMPRISING MELATONIN-CONTAINING DRUG CARRIER AND STEM CELL AND USES THEREOF” (priority 2024, published 2026).

Test system: small intestine epithelial organoids
Experiment: Flow cytometry of Ly6a-expressing cells, comparison by drug type
Type: cell-based
Conditions: drug applied together with stem cells (summary statement)
Procedure: In the art, quercetin is known as a therapeutic agent for inflammatory bowel disease. Accordingly, in Example 4, the revival stem cell induction ability of heterospheroids (hereinafter referred to as ‘Mel-HS’) including melatonin microspheres and 3D mesenchymal stem cells prepared in Example 1-1; and heterospheroids (hereinafter referred to as ‘Q-HS’) including quercetin microspheres and 3D mesenchymal stem cells was compared. The Q-HS was prepared by the same method as Example 1-1, but using quercetin instead of melatonin. Mel-HS was treated in small intestine epithelial organoids and then co-cultured for 48 hours. After culturing, cells expressing a revival stem cell marker Ly6a of the small intestine epithelial organoids were analyzed by flow cytometry. In addition, a Q-HS-treated group was also performed in the same manner as described above. As a control group for the experiment, 2D mesenchymal stem cells (2D) or 3D mesenchymal stem cells (3D) were treated. The flow cytometry results of the Mel-HS-treated group were shown in FIG. 4A, and the flow cytometry results of the Q-HS-treated group were shown in FIG. 4B.

## COc1ccc2[nH]cc(CCNC(C)=O)c2c1 [melatonin]
  induction of revival stem cells: induced revival stem cells

## O=c1c(O)c(-c2ccc(O)c(O)c2)oc2cc(O)cc(O)c12 [quercetin]
  induction of revival stem cells: no significant effect
